This assay deals with T1, Kv1.3 (Homo sapiens, UniProt P22001).
T1 construct: expressed in transfected cells; host or cells: CHO (Kv1.3/CHO)
T1 sequence (P22001 whole entry): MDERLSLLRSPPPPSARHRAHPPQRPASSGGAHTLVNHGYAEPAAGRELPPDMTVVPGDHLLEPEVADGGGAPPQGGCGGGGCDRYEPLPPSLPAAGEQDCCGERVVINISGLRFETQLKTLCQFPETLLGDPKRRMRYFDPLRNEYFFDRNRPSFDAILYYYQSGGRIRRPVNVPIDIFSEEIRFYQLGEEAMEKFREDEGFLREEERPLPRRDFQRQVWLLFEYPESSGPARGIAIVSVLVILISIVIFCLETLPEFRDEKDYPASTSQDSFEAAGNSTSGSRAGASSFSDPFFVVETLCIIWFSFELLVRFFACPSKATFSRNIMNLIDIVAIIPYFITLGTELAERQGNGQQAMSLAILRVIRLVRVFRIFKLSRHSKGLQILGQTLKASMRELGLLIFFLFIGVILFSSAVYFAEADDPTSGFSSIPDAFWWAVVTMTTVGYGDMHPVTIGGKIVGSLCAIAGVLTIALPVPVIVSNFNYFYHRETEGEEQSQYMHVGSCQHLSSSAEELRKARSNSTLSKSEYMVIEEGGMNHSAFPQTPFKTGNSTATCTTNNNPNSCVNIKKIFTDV
The experiment in a line: Electrophysiology: planar patch-clamp of Kv1.3 currents, IC50 from steady state current amplitude. Type of assay: cell-based. The following applies: Kv1.3 electrophysiology, results according to Method D1, read-out: IC50 (Kv1.3 ephys steady state). The procedure, abridged: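 Planar patch-clamp, whole-cell, Kv1.3/CHO cells; 500 ms pulses to +40 mV from −80 mV every 30 s; bath pH 7.4, pipette pH 7.2; 0.5% DMSO final. 5-6 cumulative concentrations on 2-3 cells to steady-state block; IC50 from Hill fit of normalised steady-state current at pulse end.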
A general note: Patch clamp records ionic current or voltage across a cell membrane.
In general, IC50 refers to the point on the concentration scale where inhibition reaches its midpoint. Take `CC(CC(=O)N(Cc1ccc(F)cn1)C(c1ccc(S(=O)(=O)C(C)C)cc1)C1CC1)c1ccc(F)cc1` (centres unmarked) [Example 264]: the IC50 is less than 50 nM. The same measure for `CN1CC(C(c2ccc(OC(F)(F)F)cc2)N(Cc2cncc(F)c2)C(=O)C2CC2c2ccc(F)cc2)C1` (centres unmarked) [Example 163]: 200 to 1000 nM.

On to `O=C(CS(=O)(=O)c1ccccc1F)N(Cc1ccc(C(F)(F)F)nc1)C(c1ccc(OC(F)F)cc1)C1CC1` (centres unmarked) [Example 300], for which the IC50 fell in the range of 50 to 200 nM. The same measure for `O=C(C1CC1c1ccc(F)cc1)N(Cc1ccc(F)cn1)C(c1ccc(F)cc1)C1CNC1` (centres unmarked) [Example 158]: 200 to 1000 nM; for `O=C(N(Cc1ccccn1)[C@@H](c1ccc(OC(F)F)cc1)C1CC1)C1(S(=O)(=O)c2ccc(F)cc2)CC1` [Example 91, N-{cyclopropyl[4-(difluoromethoxy)phenyl]methyl}-1-[(4-fluorophenyl)sulfonyl]-N-(pyridin-2-ylmethyl)cyclopropanecarboxamide]: 200 to 1000 nM. The same measure for `O=C(CS(=O)(=O)c1ccccc1)N(Cc1cccnn1)C(c1ccc(OC(F)F)cc1)C1CC1` (centres unmarked) [Example 306]: 200 to 1000 nM; for `CC(C(=O)N(Cc1ccccn1)C(c1ccc(Cl)cc1)C1CC1)S(=O)(=O)c1ccc(F)cc1` (single isomer, unassigned) [Example 296]: less than 50 nM; for `CCC(c1ccc(S(=O)(=O)CC)cc1)N(Cc1ccc(F)cn1)C(=O)C1CC1c1ccc(F)cc1` (centres unmarked) [Example 116]: 200 to 1000 nM. As to `O=C(C1CC1c1ccc(F)cc1)N(Cc1cccnn1)C(c1ccc(F)cc1)C1CCOC1` (centres unmarked) [Example 174], the IC50 fell in the range of 50 to 200 nM. In the case of `O=C(CS(=O)(=O)c1ccc(F)cc1)N(C1CCNCC1)C(c1ccc(OC(F)F)cc1)C1CC1` (centres unmarked) [Example 298], the IC50 lay within 200 to 1000 nM.

For `CC(CC(=O)N(Cc1ccc(C(F)(F)F)nc1)C(c1ccc(OC(F)F)cc1)C1CC1)c1ccccc1S(C)(=O)=O` (centres unmarked) [Example 263], the IC50 was in the range of 50 to 200 nM. The same measure for `CCS(=O)(=O)c1cccc(C(C2CC2)N(Cc2ccc(F)cn2)C(=O)C2CC2c2ccc(F)cc2F)c1` (centres unmarked) [Example 193]: 50 to 200 nM. Next, `Cn1ccnc1CN(C(=O)C1CC1c1ccc(F)cc1)C(c1ccc(OC(F)F)cc1)C1CC1` (centres unmarked) [Example 187]: 200 to 1000 nM; `CCS(=O)(=O)c1ccc(C(C2CC2)N(Cc2ccc(F)cn2)C(=O)C2CC2c2ccc(F)cc2)cc1` (centres unmarked) [Example 232]: 50 to 200 nM. Next, `CCS(=O)(=O)c1cccc(C(C2CC2)N(Cc2ncccc2F)C(=O)C2CC2c2ccc(F)cc2)c1` (centres unmarked) [Example 218]: 50 to 200 nM; `O=C(CS(=O)(=O)c1ccc(F)cc1)N(Cc1ccc(F)cn1)C(c1ccc(Cl)cc1)C1CC1` (centres unmarked) [Example 290]: 50 to 200 nM. For `CCS(=O)(=O)c1ccc(C(C2CC2)N(Cc2ccc(F)cn2)C(=O)CC(C)c2ccccc2C(F)(F)F)cc1` (centres unmarked) [Example 269], the IC50 lay within 50 to 200 nM. Next, `O=C(C1CC1c1ccc(F)cc1)N(Cc1ccc(F)cn1)C(c1ccc(OC(F)F)cc1)C1CNC1` (centres unmarked) [Example 153]: 1000 to 2000 nM; `CCS(=O)(=O)c1cccc(CN(C(=O)C2CC2c2ccc(F)cc2)C(c2ccc(Cl)cc2)C2CC2)n1` (centres unmarked) [Example 253]: less than 50 nM.

Consider `O=C(CS(=O)(=O)c1cccc(C(F)(F)F)c1)N(Cc1cccnn1)C(c1ccc(OC(F)F)cc1)C1CC1` (centres unmarked) [Example 310], for which the IC50 lay in the range of 200 to 1000 nM.

Turning to `CCS(=O)(=O)c1cccc(C(C2CC2)N(C(=O)C2CC2c2ccccc2OC(F)(F)F)C2CCOCC2)c1` (centres unmarked) [Example 221], the IC50 was in the range of 200 to 1000 nM. Next, `CC(C)S(=O)(=O)c1ccc(C(C2CC2)N(Cc2cccnn2)C(=O)C2CC2c2ccc(F)cc2)cc1` (centres unmarked) [Example 237]: 50 to 200 nM; `CCC(c1ccc(S(=O)(=O)CC)cc1)N(Cc1cccnn1)C(=O)C1CC1c1ccc(F)cc1` (centres unmarked) [Example 118]: 1000 to 2000 nM.

In the case of `C[C@@H](CC(=O)N(Cc1ccccn1)[C@H](c1ccc(Cl)cc1)C1CC1)S(=O)(=O)c1ccc(F)cc1` (single isomer, unassigned) [Example 76, N-[(4-chlorophenyl)(cyclopropyl)methyl]-3-[(4-fluorophenyl)sulfonyl]-N-(pyridin-2-ylmethyl)butanamide], the IC50 was less than 50 nM. The same measure for `CC(CC(=O)N(Cc1cccc[n+]1[O-])C(c1ccc(Cl)cc1)C1CC1)c1ccc(F)cc1` (centres unmarked) [Example 272]: 50 to 200 nM; for `O=C(C1CC1c1ccc(F)cc1)N(Cc1ncccc1F)C(c1ccc(F)cc1)C1CNC1` (centres unmarked) [Example 157]: 200 to 1000 nM. The same measure for `O=C(CS(=O)(=O)c1ccc(F)cc1)N(Cc1ccc(F)nc1)C(c1ccc(Cl)cc1)C1CC1` (centres unmarked) [Example 291]: 50 to 200 nM; for `O=C(CS(=O)(=O)c1cccc(C(F)(F)F)c1)N(Cc1cccnn1)C(c1ccc(OC(F)F)cc1)C1CC1` (centres unmarked) [Example 307]: 50 to 200 nM; for `CCS(=O)(=O)c1ccc(C(C2CC2)N(Cc2ccc(F)cn2)C(=O)C2CC2c2ccc(F)cc2F)cc1` (centres unmarked) [Example 230]: 50 to 200 nM.

With `O=C(CS(=O)(=O)c1ccc(F)cc1)N(Cc1ccccn1)C(c1ccc(OC(F)F)cc1)C1CC1` (centres unmarked) [Example 314], the IC50 is 200 to 1000 nM. `Cc1cccc(CN(C(=O)CS(=O)(=O)c2ccc(F)cc2)C(c2ccc(OC(F)F)cc2)C2CC2)n1` (centres unmarked) [Example 320]: the IC50 is less than 50 nM. Next, `CC(C)(C(=O)N(Cc1ccc(C(F)(F)F)nc1)C(c1ccc(OC(F)F)cc1)C1CC1)S(=O)(=O)c1ccccc1` (centres unmarked) [Example 324]: 50 to 200 nM; `O=C(C1CC1c1ccc(F)cc1)N(Cc1ccc(F)cn1)C(c1ccc(S(=O)(=O)C2CC2)cc1)C1CC1` (centres unmarked) [Example 250]: 200 to 1000 nM; `CCS(=O)(=O)c1cccc([C@H](C2CC2)N(Cc2ccc(C(F)(F)F)nc2)C(=O)[C@@H]2C[C@H]2c2ccc(F)cc2)c1` [Example 100, (1R, 2R)-2-(4-Fluoro-phenyl)-cyclopropanecarboxylic acid [(S)-cyclopropyl-(3-ethanesulfonyl-phenyl)-methyl]-(6-trifluoromethyl-pyridin-3-ylmethyl)-amide]: 50 to 200 nM.

As for `C[C@@H](CC(=O)N(Cc1ccccn1)C(c1ccc(Cl)cc1)C1CC1)c1ccc(F)cc1` (single isomer, unassigned) [Example 8], the IC50 is less than 50 nM. The same measure for `CCC(c1ccc(S(C)(=O)=O)cc1)N(Cc1ccc(C(F)(F)F)nc1)C(=O)C1CC1c1ccc(F)cc1F` (centres unmarked) [Example 129]: 50 to 200 nM; for `CCS(=O)(=O)c1cccc([C@@H](C2CC2)N(Cc2ccc(C(F)(F)F)nc2)C(=O)[C@@H]2C[C@H]2c2ccc(F)cc2)c1` (single isomer, unassigned) [Example 99]: less than 50 nM. Regarding `O=C(C1CC1c1ccccc1OC(F)(F)F)N(Cc1cccnn1)C(c1ccc(OC(F)F)cc1)C1CC1` (centres unmarked) [Example 188], the IC50 lay within 50 to 200 nM.

Take `CCS(=O)(=O)c1ccc(C(C2CC2)N(Cc2ccc(F)cn2)C(=O)C2CC2c2ccc(F)cc2F)cc1` (centres unmarked) [Example 229]: the IC50 was 50 to 200 nM.

With `CN1CCC(C(c2ccc(OC(F)F)cc2)N(C(=O)C2CC2c2ccc(F)cc2)C2CCOCC2)CC1` (centres unmarked) [Example 140], the IC50 was 1000 to 2000 nM. Next, `CCS(=O)(=O)c1ccc(C(C2CC2)N(Cc2ccc(F)cn2)C(=O)C2CC2c2cccc(C(F)(F)F)c2)cc1` (centres unmarked) [Example 227]: 50 to 200 nM; `CN1CC(C(c2ccc(OC(F)(F)F)cc2)N(Cc2cncc(F)c2)C(=O)C2CC2c2ccc(F)cc2)C1` (centres unmarked) [Example 162]: 200 to 1000 nM; `CC(C)S(=O)(=O)c1cccc(C(C2CC2)N(Cc2cncc(F)c2)C(=O)C2CC2c2ccc(F)cc2)c1` (centres unmarked) [Example 244]: 200 to 1000 nM. The same measure for `CC(CC(=O)N(Cc1cccnn1)C(c1ccc(OC(F)F)cc1)C1CC1)c1ccccc1C(F)(F)F` (centres unmarked) [Example 261]: 200 to 1000 nM. Next, `CN1CC(C(c2ccc(OC(F)F)cc2)N(Cc2ncccc2F)C(=O)C2CC2c2ccc(F)cc2)C1` (centres unmarked) [Example 150]: 200 to 1000 nM; `O=C(CS(=O)(=O)c1ccc(F)cc1)N(Cc1ncccc1F)C(c1ccc(OC(F)F)cc1)C1CC1` (centres unmarked) [Example 309]: 50 to 200 nM. With `CC(C)S(=O)(=O)c1ccc(C(C2CC2)N(Cc2ncccc2F)C(=O)C2CC2c2ccc(F)cc2)cc1` (centres unmarked) [Example 235], the IC50 was 200 to 1000 nM. Next, `CCC(c1ccc(S(=O)(=O)CC)cc1)N(Cc1ccc(C(F)(F)F)nc1)C(=O)C1CC1c1ccc(F)cc1F` (centres unmarked) [Example 119]: 50 to 200 nM; `CN1CCC(C(c2cccc(C(F)(F)F)c2)N(Cc2ccc(F)cn2)C(=O)C2CC2c2ccc(F)cc2)CC1` (centres unmarked) [Example 147]: 200 to 1000 nM.

Regarding `CC(C)S(=O)(=O)c1cccc(C(C2CC2)N(Cc2ccncn2)C(=O)C2CC2c2ccc(F)cc2)c1` (centres unmarked) [Example 247], the half-inhibitory concentration (IC50) was 50 to 200 nM. The same measure for `O=C(CS(=O)(=O)c1ccccc1)N(Cc1ncccc1F)C(c1ccc(OC(F)F)cc1)C1CC1` (centres unmarked) [Example 303]: 50 to 200 nM; for `CCC(c1ccc(S(=O)(=O)C(C)C)cc1)N(Cc1cccnn1)C(=O)C1CC1c1ccc(F)cc1` (centres unmarked) [Example 130]: 200 to 1000 nM; for `O=C(CS(=O)(=O)c1ccc(F)cc1)N(C1CCC(F)(F)CC1)C(c1ccc(OC(F)F)cc1)C1CC1` (centres unmarked) [Example 316]: 200 to 1000 nM.

With `O=C(C1CC1c1ccc(F)cc1)N(Cc1cccnn1)C(c1ccc(F)cc1)C1CCOC1` (centres unmarked) [Example 173], the IC50 fell in the range of 50 to 200 nM. The same measure for `CCS(=O)(=O)c1cccc(C(C2CC2)N(Cc2ccncn2)C(=O)C2CC2c2ccc(F)cc2)c1` (centres unmarked) [Example 192]: 200 to 1000 nM; for `Cn1cncc1CN(C(=O)C1CC1c1ccc(F)cc1)C(c1ccc(OC(F)F)cc1)C1CC1` (centres unmarked) [Example 189]: 200 to 1000 nM; for `CCS(=O)(=O)c1cccc(C(C2CC2)N(Cc2ccc(F)cn2)C(=O)C2CC2c2ccc(F)c(F)c2)c1` (centres unmarked) [Example 197]: 50 to 200 nM. Take `CC(CC(=O)N(Cc1cccnn1)C(c1ccc(OC(F)F)cc1)C1CC1)c1ccccc1C(F)(F)F` (centres unmarked) [Example 260]: the IC50 fell in the range of 50 to 200 nM. Next, `CC(C)C(c1ccc(F)cc1)N(CCC1CCNCC1)C(=O)CS(=O)(=O)c1ccc(F)cc1` (centres unmarked) [Example 284]: 200 to 1000 nM.

The record behind these values is patent publication US9493451B2 (Bionomics Limited, priority 2011, dated 2016).
